Assay results published in patent publication US20260365670A1, “EGFR INHIBITORS AND USES THEREOF” (DIZAL (JIANGSU) PHARMACEUTICAL CO., LTD., priority 2022, published 2026).
Like-named read-outs stand apart in the source and are kept apart here.

Key:
PC-9 = assay: Cell proliferation assay, PC-9 cells (CellTiter-Glo, 72 hours); format: cell-based; details: PC9 cells, CellTiter-Glo, read-out: PC9 GI50
Method in brief: (§1)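 Growth over 72 h was quantified by CellTiter-Glo luminescence, normalised as (G3 − G0)/(DMSO G3 − G0), for PC-9 cells seeded at 500/well and EGFR-mutant Ba/F3 cells at 5000/well in RPMI1640. Compound concentration series added after overnight incubation; GI50 obtained from best-fit curves.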

EGFR L858R/T790M = target: T1, EGFR L858R/T790M (Homo sapiens, UniProt P00533, L858R/T790M); assay: Inhibition of EGFR L858R/T790M biochemical enzymatic activity (HTRF); details: EGFR L858R-T790M, 1 mM ATP, 1 h, room temperature, read-out: IC50 (nM) @L858R-T790M
T1 construct: purchased Carna Bio
Method in brief: (§2)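 Compounds at varying concentrations were tested against each EGFR form using 1 mM ATP and 1 μM TK Substrate-biotin. Reactions ran 1 h at room temperature in Mg2+/Mn2+ buffer with CHAPS, DTT and 0.5% DMSO. Time-resolved fluorescence gave IC50 by four-parameter fit.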

EGFR Exon19Del = target: T2, EGFR Exon19Del (Homo sapiens, UniProt P00533, DEL746-750); assay: Inhibition of EGFR Exon19Del biochemical enzymatic activity (HTRF); details: EGFR Del19, 1 mM ATP, 1 h, room temperature, read-out: IC50 @Del19
T2 construct: purchased Carna Bio
Method in brief: as §2

EGFR (C797S L858R) = target: T3, EGFR (C797S L858R) (Homo sapiens, UniProt P00533, C797S/L858R); assay: Inhibition of EGFR (C797S L858R) biochemical enzymatic activity (HTRF); details: EGFR L858-C797S, 1 mM ATP, 1 h, room temperature, read-out: IC50 (nM) @L858-C797S
T3 construct: purchased signalchem
Method in brief: as §2

A-431 = assay: Cell proliferation GI50, A-431 cells (Table 6); format: cell-based
EGFR L858R = target: T4, EGFR L858R (Homo sapiens, UniProt P00533, L858R); assay: Inhibition of EGFR L858R biochemical enzymatic activity (HTRF); details: 1 mM ATP, 1 h, room temperature, read-out: IC50 (nM) @L858R
T4 construct: purchased Carna Bio
Method in brief: as §2

EGFR[T790M/C797S/L858R] = target: T5, EGFR[T790M/C797S/L858R] (Homo sapiens, UniProt P00533, C797S/L858R/T790M); assay: Inhibition of EGFR[T790M/C797S/L858R] biochemical enzymatic activity (HTRF); details: EGFR T790M-C797S-L858R, 1 mM ATP, 1 h, room temperature, read-out: IC50 (nM) @T790M- C797S - L858R
T5 construct: purchased Carna Bio
Method in brief: as §2

EGFR (d746-750 C797S) = target: T6, EGFR (d746-750 C797S) (Homo sapiens, UniProt P00533, C797S/DEL746-750); assay: Inhibition of EGFR (d746-750 C797S) biochemical enzymatic activity (HTRF); details: EGFR Del19-C797S, 1 mM ATP, 1 h, room temperature, read-out: IC50 (nM) @Del19-C797S
T6 construct: purchased signalchem
Method in brief: as §2

[1] = tested on: Ba/F3 cells expressing EGFR mutations; assay: Cell proliferation assay, Ba/F3 cells expressing EGFR mutations (CellTiter-Glo, 72 hours); format: cell-based; details: CellTiter-Glo
Method in brief: as §1

EGFR Exon19Del/T790M = target: T7, EGFR Exon19Del/T790M (Homo sapiens, UniProt P00533, DEL746-750/T790M); assay: Inhibition of EGFR Exon19Del/T790M biochemical enzymatic activity (HTRF); details: EGFR Del19-T790M, 1 mM ATP, 1 h, room temperature, read-out: IC50 (nM) @Del19-T790M
T7 construct: purchased Carna Bio
Method in brief: as §2

[2] = target: T8, EGFR[T790M/C797S/d746-750] (Homo sapiens, UniProt P00533, C797S/DEL746-750/T790M); assay: Inhibition of EGFR[T790M/C797S/d746-750] biochemical enzymatic activity (HTRF); details: EGFR T790M-C797S-Del19, 1 mM ATP, 1 h, room temperature, read-out: IC50 (nM) @T790M - C797S - Del19
T8 construct: purchased Carna Bio
Method in brief: as §2

EGFR wild type = target: T9, EGFR wild type (Homo sapiens, UniProt P00533); assay: Inhibition of EGFR wild type biochemical enzymatic activity (HTRF); details: EGFR WT, 1 mM ATP, 1 h, room temperature, read-out: IC50 (nM) @WT
T9 construct: purchased Carna Bio
Method in brief: as §2

[3] = BaF3 cells, EGFR DEL19-C797S, read-out: DEL19-C797S/BaF3 GI50
[4] = BaF3 cells, EGFR DEL19-T790-C797S, read-out: DEL19-T790-C797S/BaF3 GI50
[5] = BaF3 cells, EGFR L858R, read-out: L858R/BaF3 GI50
[6] = BaF3 cells, EGFR L858R-C797S, read-out: L858R-C797S/BaF3 GI50
[7] = BaF3 cells, EGFR L858R-T790-C797S, read-out: L858R-T790-C797S/BaF3 GI50
[8] = BaF3 cells, EGFR L858R-T790M, read-out: L858R-T790M/BaF3 GI50
[9] = EGFR DEL19-T790M, read-out: DEL19-T790M GI50
[10] = Homo sapiens, A-431, A-431 cells

T5 sequence (P00533 25-1210 T790M/C797S/L858R): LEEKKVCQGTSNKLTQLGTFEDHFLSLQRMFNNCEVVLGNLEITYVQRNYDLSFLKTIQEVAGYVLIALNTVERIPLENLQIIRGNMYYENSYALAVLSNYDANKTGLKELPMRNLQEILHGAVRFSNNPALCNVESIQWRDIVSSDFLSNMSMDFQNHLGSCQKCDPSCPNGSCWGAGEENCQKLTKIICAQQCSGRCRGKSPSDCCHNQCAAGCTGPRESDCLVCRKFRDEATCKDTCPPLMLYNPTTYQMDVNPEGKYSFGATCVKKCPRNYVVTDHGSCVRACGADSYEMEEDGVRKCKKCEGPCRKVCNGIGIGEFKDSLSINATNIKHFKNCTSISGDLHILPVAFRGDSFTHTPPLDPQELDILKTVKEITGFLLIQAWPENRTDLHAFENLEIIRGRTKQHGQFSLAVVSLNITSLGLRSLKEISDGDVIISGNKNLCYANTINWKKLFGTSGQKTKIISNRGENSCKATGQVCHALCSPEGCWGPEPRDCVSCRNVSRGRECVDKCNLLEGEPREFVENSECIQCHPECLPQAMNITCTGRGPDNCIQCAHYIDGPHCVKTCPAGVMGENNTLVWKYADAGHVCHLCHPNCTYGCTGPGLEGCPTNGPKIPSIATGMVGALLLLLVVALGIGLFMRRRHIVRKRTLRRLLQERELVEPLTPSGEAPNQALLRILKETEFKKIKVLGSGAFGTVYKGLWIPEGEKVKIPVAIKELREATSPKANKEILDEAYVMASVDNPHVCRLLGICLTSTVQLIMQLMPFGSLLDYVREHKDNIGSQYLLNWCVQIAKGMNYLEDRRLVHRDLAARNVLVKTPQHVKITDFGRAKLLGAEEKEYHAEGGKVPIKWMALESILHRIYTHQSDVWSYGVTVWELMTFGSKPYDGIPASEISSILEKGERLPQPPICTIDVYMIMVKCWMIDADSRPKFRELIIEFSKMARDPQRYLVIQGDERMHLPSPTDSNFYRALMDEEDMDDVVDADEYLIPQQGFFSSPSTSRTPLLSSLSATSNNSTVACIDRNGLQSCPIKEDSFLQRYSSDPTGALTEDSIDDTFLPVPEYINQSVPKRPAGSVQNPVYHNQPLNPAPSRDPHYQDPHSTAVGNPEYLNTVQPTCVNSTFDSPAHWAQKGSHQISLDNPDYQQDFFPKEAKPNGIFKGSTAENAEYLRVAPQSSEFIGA
T2 sequence (P00533 with tags, fused parts or gaps DEL746-750 limits assumed): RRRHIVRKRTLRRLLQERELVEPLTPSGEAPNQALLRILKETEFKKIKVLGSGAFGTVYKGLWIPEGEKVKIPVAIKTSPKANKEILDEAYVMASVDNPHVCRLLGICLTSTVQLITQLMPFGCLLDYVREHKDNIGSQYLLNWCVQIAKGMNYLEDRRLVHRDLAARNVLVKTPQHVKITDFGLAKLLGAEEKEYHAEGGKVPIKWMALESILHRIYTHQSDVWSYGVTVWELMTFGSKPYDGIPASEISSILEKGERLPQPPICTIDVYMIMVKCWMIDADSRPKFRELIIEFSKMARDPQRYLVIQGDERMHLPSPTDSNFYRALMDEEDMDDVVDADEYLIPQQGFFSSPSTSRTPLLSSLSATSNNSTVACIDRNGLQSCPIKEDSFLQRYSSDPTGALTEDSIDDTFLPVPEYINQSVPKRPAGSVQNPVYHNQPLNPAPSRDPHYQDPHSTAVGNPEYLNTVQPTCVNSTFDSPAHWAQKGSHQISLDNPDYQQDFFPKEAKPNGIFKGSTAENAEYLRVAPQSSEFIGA
T1 sequence (P00533 25-1210 T790M/L858R): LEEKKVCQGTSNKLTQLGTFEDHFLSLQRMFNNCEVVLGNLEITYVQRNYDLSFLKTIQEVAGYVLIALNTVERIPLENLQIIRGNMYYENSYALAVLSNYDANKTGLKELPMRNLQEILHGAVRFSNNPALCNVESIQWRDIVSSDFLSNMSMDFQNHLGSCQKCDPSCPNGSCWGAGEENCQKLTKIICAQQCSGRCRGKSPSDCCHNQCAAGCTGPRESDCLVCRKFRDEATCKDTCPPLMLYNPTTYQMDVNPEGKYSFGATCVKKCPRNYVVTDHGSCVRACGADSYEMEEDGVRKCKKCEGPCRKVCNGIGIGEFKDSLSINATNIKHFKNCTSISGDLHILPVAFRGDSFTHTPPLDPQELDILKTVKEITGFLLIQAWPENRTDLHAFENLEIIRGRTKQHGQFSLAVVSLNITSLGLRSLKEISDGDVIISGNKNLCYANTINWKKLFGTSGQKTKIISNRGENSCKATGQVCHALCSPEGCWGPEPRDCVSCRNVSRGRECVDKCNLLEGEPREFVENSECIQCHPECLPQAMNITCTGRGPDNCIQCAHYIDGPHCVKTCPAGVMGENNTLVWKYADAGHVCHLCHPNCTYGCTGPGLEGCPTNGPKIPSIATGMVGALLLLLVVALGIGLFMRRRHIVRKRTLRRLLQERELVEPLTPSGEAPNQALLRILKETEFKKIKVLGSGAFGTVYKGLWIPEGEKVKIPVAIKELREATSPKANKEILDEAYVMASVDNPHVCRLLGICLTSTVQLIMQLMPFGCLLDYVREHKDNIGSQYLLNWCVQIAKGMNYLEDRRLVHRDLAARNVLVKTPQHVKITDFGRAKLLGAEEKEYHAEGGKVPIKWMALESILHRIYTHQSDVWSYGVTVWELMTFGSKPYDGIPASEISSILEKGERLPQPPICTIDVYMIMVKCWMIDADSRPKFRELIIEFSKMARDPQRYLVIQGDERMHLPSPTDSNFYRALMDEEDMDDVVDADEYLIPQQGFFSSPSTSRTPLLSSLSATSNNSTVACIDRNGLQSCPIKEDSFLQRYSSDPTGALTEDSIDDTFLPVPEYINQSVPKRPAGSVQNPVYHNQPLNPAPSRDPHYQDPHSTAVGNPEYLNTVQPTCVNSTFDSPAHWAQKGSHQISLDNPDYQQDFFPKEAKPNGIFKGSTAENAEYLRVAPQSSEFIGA
T3 sequence (P00533 25-1210 C797S/L858R): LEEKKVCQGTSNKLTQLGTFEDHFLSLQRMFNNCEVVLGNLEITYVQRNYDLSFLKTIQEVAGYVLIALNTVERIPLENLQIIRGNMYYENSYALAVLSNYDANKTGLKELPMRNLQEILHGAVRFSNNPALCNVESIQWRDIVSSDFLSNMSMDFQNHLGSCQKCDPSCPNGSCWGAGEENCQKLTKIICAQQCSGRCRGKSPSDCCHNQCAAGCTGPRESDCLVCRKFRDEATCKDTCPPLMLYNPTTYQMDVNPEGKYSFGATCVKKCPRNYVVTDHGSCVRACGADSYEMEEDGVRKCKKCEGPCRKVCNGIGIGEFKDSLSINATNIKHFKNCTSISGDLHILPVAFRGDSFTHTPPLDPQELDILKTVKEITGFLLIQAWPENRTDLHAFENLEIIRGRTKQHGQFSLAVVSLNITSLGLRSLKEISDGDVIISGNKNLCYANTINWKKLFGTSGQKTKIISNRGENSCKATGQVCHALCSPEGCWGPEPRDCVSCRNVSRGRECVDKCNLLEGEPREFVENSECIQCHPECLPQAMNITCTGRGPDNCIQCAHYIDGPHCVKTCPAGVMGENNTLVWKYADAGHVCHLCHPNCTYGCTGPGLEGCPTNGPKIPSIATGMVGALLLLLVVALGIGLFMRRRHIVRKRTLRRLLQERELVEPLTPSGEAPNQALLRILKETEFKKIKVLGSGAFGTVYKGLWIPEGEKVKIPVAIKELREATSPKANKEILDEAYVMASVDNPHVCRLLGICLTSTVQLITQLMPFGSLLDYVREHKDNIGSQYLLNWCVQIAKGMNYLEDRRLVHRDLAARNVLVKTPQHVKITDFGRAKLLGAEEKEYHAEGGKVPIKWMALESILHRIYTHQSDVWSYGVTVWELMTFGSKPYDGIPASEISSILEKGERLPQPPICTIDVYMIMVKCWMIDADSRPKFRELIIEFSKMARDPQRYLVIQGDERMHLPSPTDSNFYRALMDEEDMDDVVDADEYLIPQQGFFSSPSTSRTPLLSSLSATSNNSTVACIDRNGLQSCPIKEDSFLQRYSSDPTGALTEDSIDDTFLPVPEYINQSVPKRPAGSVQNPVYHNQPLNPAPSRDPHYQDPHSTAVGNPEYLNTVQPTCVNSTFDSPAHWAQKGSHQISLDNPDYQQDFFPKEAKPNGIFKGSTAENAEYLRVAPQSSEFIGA
T8 sequence (P00533 with tags, fused parts or gaps DEL746-750/T790M/C797S limits assumed): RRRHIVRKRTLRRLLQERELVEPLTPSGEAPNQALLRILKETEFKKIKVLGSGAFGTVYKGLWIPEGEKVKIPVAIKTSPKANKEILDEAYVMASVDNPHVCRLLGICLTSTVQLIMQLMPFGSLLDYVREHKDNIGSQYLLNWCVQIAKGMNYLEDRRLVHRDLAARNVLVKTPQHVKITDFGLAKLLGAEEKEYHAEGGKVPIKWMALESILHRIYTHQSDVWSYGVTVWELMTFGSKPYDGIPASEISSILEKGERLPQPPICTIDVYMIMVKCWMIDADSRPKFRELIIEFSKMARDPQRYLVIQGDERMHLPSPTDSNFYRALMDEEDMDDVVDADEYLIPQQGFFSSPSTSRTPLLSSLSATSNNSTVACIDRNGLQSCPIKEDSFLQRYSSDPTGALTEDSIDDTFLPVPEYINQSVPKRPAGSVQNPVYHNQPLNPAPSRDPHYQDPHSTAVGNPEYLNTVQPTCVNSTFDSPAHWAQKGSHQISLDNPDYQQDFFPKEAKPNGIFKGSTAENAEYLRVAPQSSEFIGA

SMILES	GI50 (PC-9)	IC50 (EGFR L858R/T790M)	IC50 (EGFR Exon19Del)	IC50 (EGFR (C797S L858R))	GI50 (A-431; A-431 cells)	IC50 (EGFR L858R)	IC50 (EGFR[T790M/C797S/L858R])	IC50 (EGFR (d746-750 C797S))	GI50 [1, 3]	GI50 [1, 4]	GI50 [1, 5]	GI50 [1, 6]	GI50 [1, 7]	GI50 [1, 8]	GI50 [1, 9]	IC50 (EGFR Exon19Del/T790M)	IC50 [2]	IC50 (EGFR wild type)	GI50 (A-431; [10])
Cn1ncc2c1OCCN1CC3CCC(C3)(C1)n1c(nc3ccc(N4CCN(C5CC5)CC4)cc31)NC(=O)c1cc-2c(=O)n(C)c1 (single isomer, unassigned) [Example A83B]	20 nM	2.8 nM	0.96 nM	5 nM	1190 nM	5 nM	2.3 nM	0.96 nM	0.7 nM	10 nM	13 nM	8.9 nM	15 nM	25 nM	10 nM	2.7 nM	2.7 nM	83 nM	–
CN(C)C1CN(c2ccc3nc4n(c3c2)C23CCC(CN(CCOc5c(cnn5C)-c5cc(cn(C)c5=O)C(=O)N4)C2)C3)CC1F (single isomer, unassigned) [Example A84A, 15,21-Dimethyl-5-[4-fluoro-3-(N,N-dimethylamino)pyrrolidinyl]-23-oxa-2,9,11,15,20,21,26-heptaazaheptacyclo[24.4.1.1^{1,28}.1^{13,17}.0^{2,10}.0^{3,8}.0^{18,22}]tritriaconta-3,5,7,9,13,17(33),18(22),19-octaene-12,16-dione]	214 nM	> 5000 nM	226 nM	1180 nM	3990 nM	830 nM	> 5000 nM	258 nM	98 nM	232 nM	311 nM	190 nM	362 nM	402 nM	171 nM	> 5000 nM	> 5000 nM	> 5000 nM	–
CN(C)C1CN(c2ccc3nc4n(c3c2)C23CCC(CN(CCOc5c(cnn5C)-c5cc(cn(C)c5=O)C(=O)N4)C2)C3)CC1F (single isomer, unassigned) [Example A84C, 15,21-Dimethyl-5-[4-fluoro-3-(N,N-dimethylamino)pyrrolidinyl]-23-oxa-2,9,11,15,20,21,26-heptaazaheptacyclo[24.4.1.1^{1,28}.1^{13,17}.0^{2,10}.0^{3,8}.0^{18,22}]tritriaconta-3,5,7,9,13,17(33),18(22),19-octaene-12,16-dione]	6.6 nM	5 nM	2.6 nM	4.8 nM	727 nM	6.7 nM	3.5 nM	1.4 nM	0.72 nM	2.1 nM	2.1 nM	3.9 nM	6 nM	12 nM	2.7 nM	3.4 nM	2.5 nM	57 nM	–
CN(C)C1CN(c2ccc3nc4n(c3c2)C23CCC(CN(CCOc5c(cnn5C)-c5cc(cn(C)c5=O)C(=O)N4)C2)C3)CC1F (single isomer, unassigned) [Example A84D, 15,21-Dimethyl-5-[4-fluoro-3-(N,N-dimethylamino)pyrrolidinyl]-23-oxa-2,9,11,15,20,21,26-heptaazaheptacyclo[24.4.1.1^{1,28}.1^{13,17}.0^{2,10}.0^{3,8}.0^{18,22}]tritriaconta-3,5,7,9,13,17(33),18(22),19-octaene-12,16-dione]	29 nM	4.6 nM	3.1 nM	9.8 nM	1770 nM	21 nM	4.4 nM	2.4 nM	0.77 nM	13 nM	14 nM	16 nM	31 nM	40 nM	14 nM	3.9 nM	3.3 nM	196 nM	–
CN(C)CCN(C)c1ccc2nc3n(c2c1)C12CCC(CN(CCOc4c(cnn4C)-c4cc(cn(C)c4=O)C(=O)N3)C1)C2 (single isomer, unassigned) [Example A85B]	12 nM	3.1 nM	1.2 nM	5.5 nM	–	11 nM	3.1 nM	1.6 nM	0.5 nM	1.1 nM	0.78 nM	1.6 nM	1.2 nM	7.7 nM	1.3 nM	2.2 nM	2.2 nM	84 nM	969 nM
CN1CCOC2(C1)CN(c1ccc3nc4n(c3c1)C13CCC(CN(CCOc5c(cnn5C)-c5cc(cn(C)c5=O)C(=O)N4)C1)C3)C2 (single isomer, unassigned) [Example A86B]	26 nM	12 nM	4 nM	14 nM	–	16 nM	8.1 nM	3.9 nM	0.71 nM	1.9 nM	2.4 nM	5.2 nM	4.2 nM	10 nM	1.2 nM	9.5 nM	8.5 nM	110 nM	2670 nM
